# From patent US10899714B2, “6-aminoisoquinoline compounds” (Aerie Pharmaceuticals, Inc., priority 2007, dated 2021)
# Where a name gives a salt, the structure may show the parent alone.
# Key:
# Assay type in all cases: in vivo
# [1] = Topical ocular composition (Example 212), dry eye syndrome; conditions: 0.50 wt % topical composition, drop twice per day
# [2] = Topical ocular composition (Example 212), allergic symptoms; conditions: 0.50 wt % topical composition
# [3] = Topical ocular composition (Example 212), hyperemia, redness and ocular irritation; conditions: 0.50 wt % topical composition, drop as needed
# [4] = test system: patient suffering from glaucoma; assay: Topical ocular composition (Example 212) lowering intraocular pressure; conditions: 0.50 wt % topical composition
# Method: Examples of such assays are described in the following reference, incorporated herein by reference: C. Liljebris, G. Selen. B. Resul, J. Sternschantz, and U. Hacksell, “Derivatives of 17-Phenyl-18, 19, 20-trinorprostaglandin F2α Isopropyl Ester: Potential Anti-glaucoma Agents”, Journal of Medicinal Chemistry, Vol. 38 (2) 1995, pp. 289-304.
# Topical pharmaceutical compositions for lowering intraocular pressure are prepared by conventional methods and formulated as follows: […]
# A compound according to this invention is used as the 6-aminoisoquinoline derivative. […]
# [5] = Topical ocular composition (Example 212), neuroprotective effect; conditions: 0.50 wt % topical composition, drop 4 times per day
smiles,measurement,setting,value
"O=C(CCl)Nc1ccc2cnccc2c1 [Example E1, 2-chloro-N-(isoquinolin-6-yl) acetamide]",dry eye syndrome,[1],relieves dry eye syndrome
same,allergic symptoms,[2]; drop twice per day,substantially decreases allergic symptoms
"NCC(=O)Nc1ccc2cnccc2c1 [Example E40, 2-amino-N-isoquinoline-6-yl-acetamide dihydrochloride]","hyperemia, redness and ocular irritation",[3],"substantially decreases hyperemia, redness and ocular irritation"
"O=C(CNCc1ccccc1)Nc1ccc2cnccc2c1 [Example E58, 2-(benzylamino)-N-(isoquinolin-6-yl)acetamide]",intraocular pressure,[4]; drop twice per day,substantially decreases intraocular pressure
"O=C(Nc1ccc2cnccc2c1)OCc1ccccc1 [Example E87, benzylisoquinolin-6-ylcarbamate]",dry eye syndrome,[1],relieves dry eye syndrome
same,allergic symptoms,[2]; drop twice per day,substantially decreases allergic symptoms
"O=C(NCc1ccccc1)Nc1ccc2cnccc2c1 [Example E88, 1-benzyl-3-(isoquinolin-6-yl)urea]",allergic symptoms,[2]; drop as needed,substantially decreases allergic symptoms
"O=C(CN1CCOCC1)Nc1ccc2cnccc2c1 [Example E105, N-(isoquinolin-6-yl)-2-morpholinoacetamide]","hyperemia, redness and ocular irritation",[3],"substantially decreases hyperemia, redness and ocular irritation"
"O=C(Nc1ccncc1)c1ccc(C2CC2C(=O)Nc2ccc3cnccc3c2)cc1 (stereo not shown) [Example E118, 4-(2-(isoquinolin-6-ylcarbamoyl)cyclopropyl)-N-(pyridin-4-yl)benzamide]",intraocular pressure,[4]; drop twice a day or as needed,substantially decreases intraocular pressure
"CNC(=O)c1cccc(NCC(=O)Nc2ccc3cnccc3c2Cl)c1 [Example E119b, 3-(2-(5-chloroisoquinolin-6-ylamino)-2-oxoethylamino)-N-methyl benzamide]",intraocular pressure,[4]; drop twice a day or as needed,substantially decreases intraocular pressure
"CNC(=O)c1cccc(NCS(=O)(=O)Nc2ccc3cnccc3c2)c1 [Example E136, 3-((N-isoquinolin-6-ylsulfamoyl)methylamino)-N-methylbenzamide]",intraocular pressure,[4]; drop twice per day,substantially decreases intraocular pressure
"N[C@@H](CSCC(C(=O)c1ccc(/C=C/C(=O)Nc2ccc3cnccc3c2)cc1)c1ccccc1)C(=O)O (stereo partly drawn) [Example E207, (2R)-2-amino-3-(3-(4-((E)-3-(isoquinolin-6-ylamino)-3-oxoprop-1-enyl)phenyl)-3-oxo-2-phenylpropylthio)propanoic acid]",intraocular pressure,[4]; drop 4 times per day,substantially decreases intraocular pressure
same,neuroprotective agent,[5],serves as a neuroprotective agent
